From US8207172B2 (Bayer Intellectual Property GmbH, priority 2004, dated 2012)
Counter-ions that a name gives are not always drawn.

Tests used:
[1] = tested on: A431 cells (human epidermoid carcinoma); assay: In vitro tumor cell proliferation assay (Cell Titer-Glo luminescent cell viability), A431; type: cell-based; conditions: A-431, 72 h, 72 hours of drug exposure, ATP luminescence readout, read-out: IC50, anti-proliferative activity (inhibition of cell proliferation)
Summary of the method: (§1)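 IC50 values reflect ATP-based luminescence (CellTiter-Glo) after 72 h compound exposure at 37°C. Both lines, A431 and BT474, were plated in RPMI with 10% FBS and received serial dilutions ranging from 100 μM to 64 pM final at 0.1% DMSO.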

[2] = tested on: BT474 (human breast carcinoma); assay: In vitro tumor cell proliferation assay (Cell Titer-Glo luminescent cell viability), BT474; type: cell-based; conditions: BT-474, 72 h, BT474 cells, 72 hours of drug exposure, ATP luminescence readout, read-out: IC50, anti-proliferative activity (inhibition of cell proliferation)
Summary of the method: as §1

SMILES | IC50 [1] [µM] | IC50 [2] [µM]
COCCNCCn1cc2c(n1)CCc1c-2sc2ncnc(Nc3ccc(OCc4cccc(F)c4)c(Cl)c3)c12 [Example 59, N-{3-chloro-4-[(3-fluorobenzyl)oxy]phenyl}-2-{2-[(2-methoxyethyl)amino]ethyl}-4,5-dihydro-2H-pyrimido[5′,4′:4,5]thieno[2,3-e]indazol-6-amine] | ≤ 5 | ≤ 1
OC[C@H](O)Cn1cc2c(n1)CCc1c-2sc2ncnc(Nc3ccc(F)c(Cl)c3)c12 [Example 44, (R)-3-[6-(3-Chloro-4-fluoro-phenylamino)-4,5-dihydro-10-thia-2,3,7,9-tetraaza-cyclopenta[a]fluoren-2-yl}-propane-1,2-diol] | ≤ 5 | ≤ 1
OC[C@@H](O)Cn1cc2c(n1)CCc1c-2sc2ncnc(Nc3ccc(OCc4cccc(F)c4)c(Cl)c3)c12 [Example 75, (S)-3-{6-[3-Chloro-4-(3-fluoro-benzyloxy)-phenylamino]-4,5-dihydro-10-thia-2,3,7,9-tetraaza-cyclopenta[a]fluoren-2-yl}-propane-1,2-diol] | ≤ 5 | ≤ 1
CN(C)C1CCN(CCn2cc3c(n2)CCc2c-3sc3ncnc(Nc4ccc5c(cnn5Cc5cccc(F)c5)c4)c23)C1 (stereo not drawn) [Example 282, 2-{2-[3-(dimethylamino)pyrrolidin-1-yl]ethyl}-N-[1-(3-fluorobenzyl)-1H-indazol-5-yl]-4,5-dihydro-2H-pyrimido[5′,4′:4,5]thieno[2,3-e]indazol-6-amine] | ≤ 5 | ≤ 1
OC[C@H]1CCCN1CCn1cc2c(n1)CCc1c-2sc2ncnc(Nc3ccc(F)c(Cl)c3)c12 [Example 29, [(2R)-1-(2-{6-[(3-chloro-4-fluorophenyl)amino]-4,5-dihydro-2H-pyrimido[5′,4′:4,5]thieno[2,3-e]indazol-2-yl}ethyl)pyrrolidin-2-yl]methanol] | ≤ 5 | ≤ 5
c1ccc(Cn2ncc3cc(Nc4ncnc5sc6c(c45)CCc4n[nH]cc4-6)ccc32)cc1 [Example 309, N-(1-benzyl-1H-indazol-5-yl)-4,5-dihydro-2H-pyrimido[5′,4′:4,5]thieno[2,3-e]indazol-6-amine] | ≤ 5 | ≤ 1
O=C(Cn1cc2c(n1)CCc1c-2sc2ncnc(Nc3ccc(OCc4cccc(F)c4)c(Cl)c3)c12)NCCN1CCOCC1 [Example 189, 2-[6-({3-chloro-4-[(3-fluorobenzyl)oxy]phenyl}amino)-4,5-dihydro-2H-pyrimido[5′,4′:4,5]thieno[2,3-e]indazol-2-yl]-N-(2-morpholin-4-ylethyl)acetamide] | ≤ 50 | ≤ 1
Fc1ccc(Nc2ncnc3sc4c(c23)CCc2nn(CCNCCN3CCCC3)cc2-4)cc1Cl [Example 18, N-(3-chloro-4-fluorophenyl)-2-{2-[(2-pyrrolidin-1-ylethyl)amino]ethyl}-4,5-dihydro-2H-pyrimido[5′,4′:4,5]thieno[2,3-e]indazol-6-amine] | ≤ 50 | ≤ 50
OCCN(CCO)CCn1cc2c(n1)CCc1c-2sc2ncnc(Nc3ccc(F)c(Cl)c3)c12 [Example 26, 2,2′-[(2-{6-[(3-chloro-4-fluorophenyl)amino]-4,5-dihydro-2H-pyrimido[5′,4′:4,5]thieno[2,3-e]indazol-2-yl}ethyl)imino]diethanol] | ≤ 5 | ≤ 5
Cc1ccc(Oc2ccc(Nc3ncnc4sc5c(c34)CCc3nn(CCN4CCN(C)CC4)cc3-5)cc2C)cn1 [Example 49, N-{3-methyl-4-[(6-methylpyridin-3-yl)oxy]phenyl}-2-[2-(4-methylpiperazin-1-yl)ethyl]-4,5-dihydro-2H-pyrimido[5′,4′:4,5]thieno[2,3-e]indazol-6-amine] | ≤ 5 | ≤ 1
CN(C)C1CCN(CCn2ncc3c2CCc2c-3sc3ncnc(Nc4ccc(OCc5cccc(F)c5)c(Cl)c4)c23)C1 (stereo not drawn) [Example 267, N-{3-chloro-4-[(3-fluorobenzyl)oxy]phenyl}-3-{2-[3-(dimethylamino)pyrrolidin-1-yl]ethyl}-4,5-dihydro-3H-pyrimido[5′,4′:4,5]thieno[2,3-e]indazol-6-amine trifluoroacetate] | ≤ 5 | ≤ 1
Cc1nccn1CCn1cc2c(n1)CCc1c-2sc2ncnc(Nc3ccc(F)c(Cl)c3)c12 [Example 37, N-(3-chloro-4-fluorophenyl)-2-[2-(2-methyl-1H-imidazol-1-yl)ethyl]-4,5-dihydro-2H-pyrimido[5′,4′:4,5]thieno[2,3-e]indazol-6-amine] | ≤ 5 | ≤ 5
COCCNCCn1cc2c(n1)CCc1c-2sc2ncnc(Nc3ccc4c(cnn4Cc4cccc(F)c4)c3)c12 [Example 280, N-[1-(3-fluorobenzyl)-1H-indazol-5-yl]-2-{2-[(2-methoxyethyl)amino]ethyl}-4,5-dihydro-2H-pyrimido[5′,4′:4,5]thieno[2,3-e]indazol-6-amine] | ≤ 5 | ≤ 1
Fc1ccc(Nc2ncnc3sc4c(c23)CCc2c-4cnn2CCNCCN2CCOCC2)cc1Cl [Example 93, N-(3-chloro-4-fluorophenyl)-3-{2-[(2-morpholin-4-ylethyl)amino]ethyl}-4,5-dihydro-3H-pyrimido[5′,4′:4,5]thieno[2,3-e]indazol-6-amine] | ≤ 5 | ≤ 5
OCCn1cc2c(n1)CCc1c-2sc2ncnc(Nc3ccc(OCc4ccccc4)c(Cl)c3)c12 [Example 124, 2-(6-{[4-(benzyloxy)-3-chlorophenyl]amino}-4,5-dihydro-2H-pyrimido[5′,4′:4,5]thieno[2,3-e]indazol-2-yl)ethanol] | ≤ 50 | ≤ 1
Fc1cccc(COc2ccc(Nc3ncnc4sc5c(c34)CCc3nn(CCN4CCCC4)cc3-5)cc2Cl)c1 [Example 65, N-{3-chloro-4-[(3-fluorobenzyl)oxy]phenyl}-2-(2-pyrrolidin-1-ylethyl)-4,5-dihydro-2H-pyrimido[5′,4′:4,5]thieno[2,3-e]indazol-6-amine] | ≤ 5 | ≤ 1
OCCn1cc2c(n1)CCc1c-2sc2ncnc(Nc3ccc4c(cnn4Cc4ccccc4)c3)c12 [Example 302, 2-{6-[(1-benzyl-1H-indazol-5-yl)amino]-4,5-dihydro-2H-pyrimido[5′,4′:4,5]thieno[2,3-e]indazol-2-yl}ethanol] | ≤ 5 | ≤ 1
CCN(CCOC)CCn1cc2c(n1)CCc1c-2sc2ncnc(Nc3ccc(F)c(Cl)c3)c12 [Example 24, N-(3-chloro-4-fluorophenyl)-2-{2-[ethyl(2-methoxyethyl)amino]ethyl}-4,5-dihydro-2H-pyrimido[5′,4′:4,5]thieno[2,3-e]indazol-6-amine] | ≤ 5 | ≤ 5
